{"source": "patent US6939686B2", "about": "“Methodology of using raman imaging microscopy for evaluating drug action within living cells” (Southwest Research Institute, priority 2000, dated 2005)", "test_system": "MDA435 breast cancer cells", "experiment": "Ratio Raman imaging of drug uptake and distribution in a single living cell", "type": "cell-based", "experimental": "Raman imaging of the cell-drug interactions consists of several steps. First, the Raman spectrum of the drug is measured. From the Raman spectrum, the locations and relative intensities of the Raman peaks (or Raman modes) is determined. The combination of the multiple Raman peaks and their relative intensities provides a unique fingerprint of the drug. In the preferred embodiment, the Raman spectrum of the anticancer drug taxol was measured as illustrated in FIG. 1. From the spectrum the most significant Raman mode is 1002 cm^−1.\nIn the preferred embodiment the Raman signal of a breast tumor cell was studied and the Raman spectrum was measured. […] The laser beam was focused in the cell cytoplasm and nucleus areas to determine if there was any difference in their spectra. Each measurement was 120 seconds long. FIGS. 2 and 3 illustrate the Raman spectra of the cytoplasm and nucleus of the breast tumor cell, respectively. […]\nThe acquired Raman images are then processed by smoothing noises, de-blurring, and removing the intensity contributed from the fluorescence. […]\nThe restored Raman signal still contained the non-uniform illumination effect and fluorescent contribution, illustrated as follows: s(x,y)=K(x,y)·i(x,y)·t+Ko(x,y)·i(x,y)·t. From the Raman spectra illustrated in FIGS. 1-3, Raman peaks are riding on a broadband baseline that is contributed from the fluorescence. […]", "data": [{"smiles": "CC(=O)O[C@H]1C(=O)[C@@]2(C)[C@H]([C@H](OC(=O)c3ccccc3)[C@]3(O)C[C@H](OC(=O)[C@H](O)[C@@H](NC(=O)c4ccccc4)c4ccccc4)C(C)=C1C3(C)C)[C@]1(OC(C)=O)CO[C@@H]1C[C@@H]2O", "note": "[taxol]", "values": [{"measurement": "drug distribution within the cell (ratio Raman image at 1002 cm^−1)", "setting": "breast tumor cell exposed to 0.3 mg/ml taxol solution for one hour, FIG. 5(b)", "result": "taxol entered the tumor cell from the top membrane and gradually penetrated into the center of the cell"}, {"measurement": "drug distribution at different depths of the cell (stack of ratio Raman images)", "setting": "breast tumor cell treated with 0.3 mg/ml taxol solution for one hour, FIG. 7", "result": "More drug entered the cell from the middle layer (Z=6 μm)"}]}]}
